Results reported in ChEMBL document CHEMBL1201862, “PubChem BioAssay data set” (2004).
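1) Cells in 96-well plates. 2) Compound, 48 h, 5 concentrations. 3) Linear interpolation between surrounding doses. 4) Unreached endpoint = highest concentration. Here, GI50 denotes the concentration required for 50% inhibition of growth.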 The source made the active and inactive calls. Rule as the data show it: active = GI50 up to about 1.1 µM and inactive = higher.

Legend:
Test in all cases: NCI tumour cell line growth inhibition, 48 h
[1] = tested on: RXF 393
[2] = tested on: U-251
[3] = tested on: OVCAR-5
[4] = tested on: SK-MEL-28
[5] = tested on: SK-MEL-5
[6] = tested on: SN12C
[7] = tested on: UO-31
[8] = tested on: SNB-19
[9] = tested on: UACC-257
[10] = tested on: SK-MEL-2
[11] = tested on: NCI-H226
[12] = tested on: Malme-3M
[13] = tested on: KM12
[14] = tested on: NCI-H23
[15] = tested on: MDA-N
[16] = tested on: NCI/ADR-RES
[17] = tested on: SW-620
[18] = tested on: HCC 2998
[19] = tested on: HCT-15
[20] = tested on: A498

| SMILES | GI50 [1] | GI50 [2] | GI50 [3] | GI50 [4] | GI50 [5] | GI50 [6] | GI50 [7] | GI50 [8] | GI50 [9] | GI50 [10] | GI50 [11] | GI50 [12] | GI50 [13] | GI50 [14] | GI50 [15] | GI50 [16] | GI50 [17] | GI50 [18] | GI50 [19] [µM] | GI50 [20] |
| --- | --- | --- | --- | --- | --- | --- | --- | --- | --- | --- | --- | --- | --- | --- | --- | --- | --- | --- | --- | --- |
| Clc1ccc(OCC2NC3CCC2CC3)cn1 (configuration not stated) | 36.9 µM (inactive) | 16.3 µM (inactive) | 52 µM (inactive) | 37.8 µM (inactive) | 17.6 µM (inactive) | 28.4 µM (inactive) | 2.45 µM (inactive) | 34.4 µM (inactive) | 17.8 µM (inactive) | 18 µM (inactive) | > 100 µM (inactive) | 19.5 µM (inactive) | 18.4 µM (inactive) | 49.2 µM (inactive) | 16.8 µM (inactive) | 50.1 µM (inactive) | 22.7 µM (inactive) | 16.6 µM (inactive) | 20.7 | – |
| COC(=O)C1C(OC(=O)c2ccccc2)CC2CCC1N2C(N)=O (configuration not stated) | – | > 100 µM (inactive) | > 100 µM (inactive) | > 100 µM (inactive) | > 100 µM (inactive) | > 100 µM (inactive) | > 100 µM (inactive) | > 100 µM (inactive) | > 100 µM (inactive) | > 100 µM (inactive) | > 100 µM (inactive) | > 100 µM (inactive) | > 100 µM (inactive) | > 100 µM (inactive) | > 100 µM (inactive) | > 100 µM (inactive) | > 100 µM (inactive) | > 100 µM (inactive) | > 100 | > 100 µM (inactive) |
| COc1ccc(-c2c(C#N)c(S)n(NS(=O)(=O)c3ccccc3)c(=O)c2C#N)cc1 | 37.8 µM (inactive) | 40.4 µM (inactive) | > 100 µM (inactive) | > 100 µM (inactive) | 36.7 µM (inactive) | 46.5 µM (inactive) | 65 µM (inactive) | > 100 µM (inactive) | 80.9 µM (inactive) | 47 µM (inactive) | > 100 µM (inactive) | > 96.6 µM (inactive) | 70.6 µM (inactive) | 75.2 µM (inactive) | 45.6 µM (inactive) | 70.5 µM (inactive) | 40.9 µM (inactive) | > 100 µM (inactive) | 40.6 | – |
| O=C(O)c1ccc(C2=Nc3cccc4cccc(c34)N2)cc1 | > 100 µM (inactive) | > 100 µM (inactive) | – | > 100 µM (inactive) | > 100 µM (inactive) | > 100 µM (inactive) | > 100 µM (inactive) | > 100 µM (inactive) | > 100 µM (inactive) | > 100 µM (inactive) | > 100 µM (inactive) | > 100 µM (inactive) | > 100 µM (inactive) | > 100 µM (inactive) | > 100 µM (inactive) | > 100 µM (inactive) | > 100 µM (inactive) | > 100 µM (inactive) | > 100 | – |
| CCOC(=O)c1cnc(-n2[nH]c(C)c(CCO)c2=O)[nH]c1=O | > 100 µM (inactive) | > 100 µM (inactive) | > 100 µM (inactive) | > 100 µM (inactive) | > 100 µM (inactive) | > 100 µM (inactive) | > 100 µM (inactive) | > 100 µM (inactive) | > 100 µM (inactive) | > 100 µM (inactive) | > 100 µM (inactive) | > 100 µM (inactive) | > 100 µM (inactive) | > 100 µM (inactive) | > 100 µM (inactive) | > 100 µM (inactive) | > 100 µM (inactive) | > 100 µM (inactive) | > 100 | – |
| C/C=C1\C(=O)OC2CCN3CCC(COC(=O)C(C)(O)C(C)C1O)C23 (configuration not stated) | – | > 100 µM (inactive) | > 100 µM (inactive) | > 100 µM (inactive) | > 100 µM (inactive) | > 100 µM (inactive) | > 100 µM (inactive) | > 100 µM (inactive) | > 100 µM (inactive) | > 100 µM (inactive) | > 100 µM (inactive) | > 100 µM (inactive) | > 100 µM (inactive) | > 100 µM (inactive) | > 100 µM (inactive) | > 100 µM (inactive) | > 100 µM (inactive) | > 100 µM (inactive) | > 100 | > 100 µM (inactive) |
| Cc1ccc(C(=O)O)c(CC2Cc3c(C)cccc3C2=O)c1 (configuration not stated) | > 100 µM (inactive) | > 100 µM (inactive) | > 100 µM (inactive) | > 100 µM (inactive) | > 100 µM (inactive) | > 100 µM (inactive) | > 100 µM (inactive) | > 100 µM (inactive) | > 100 µM (inactive) | > 100 µM (inactive) | > 100 µM (inactive) | > 100 µM (inactive) | > 100 µM (inactive) | > 100 µM (inactive) | > 100 µM (inactive) | > 100 µM (inactive) | > 100 µM (inactive) | > 100 µM (inactive) | > 100 | – |
| CSc1ncnc2c1cnn2Cc1cnnn1COCC(O)CO (configuration not stated) | – | > 100 µM (inactive) | > 100 µM (inactive) | > 100 µM (inactive) | > 100 µM (inactive) | > 100 µM (inactive) | > 100 µM (inactive) | > 100 µM (inactive) | > 100 µM (inactive) | > 100 µM (inactive) | > 100 µM (inactive) | – | > 100 µM (inactive) | > 100 µM (inactive) | > 100 µM (inactive) | > 100 µM (inactive) | > 100 µM (inactive) | > 100 µM (inactive) | > 100 | > 100 µM (inactive) |
| CC(=O)Nc1ccc(Nc2nc(=O)[nH]c(=O)[nH]2)cc1 | – | > 100 µM (inactive) | > 100 µM (inactive) | > 100 µM (inactive) | > 100 µM (inactive) | > 100 µM (inactive) | 28.6 µM (inactive) | > 100 µM (inactive) | > 100 µM (inactive) | > 100 µM (inactive) | > 100 µM (inactive) | > 100 µM (inactive) | > 100 µM (inactive) | > 100 µM (inactive) | > 100 µM (inactive) | > 100 µM (inactive) | > 100 µM (inactive) | > 100 µM (inactive) | > 100 | > 100 µM (inactive) |
| CCOC(=O)c1ccc(NCc2ccc3nc(OC)c(OC)nc3c2)cc1 | – | > 100 µM (inactive) | > 100 µM (inactive) | > 100 µM (inactive) | > 100 µM (inactive) | > 100 µM (inactive) | > 100 µM (inactive) | > 100 µM (inactive) | > 100 µM (inactive) | > 100 µM (inactive) | > 100 µM (inactive) | > 100 µM (inactive) | > 100 µM (inactive) | > 100 µM (inactive) | > 100 µM (inactive) | > 100 µM (inactive) | > 100 µM (inactive) | > 100 µM (inactive) | > 100 | > 100 µM (inactive) |
| COC(=O)C1(C(=O)OC)C/C(C)=C(/C)SCCCS1 | > 100 µM (inactive) | > 100 µM (inactive) | > 100 µM (inactive) | > 100 µM (inactive) | > 100 µM (inactive) | 86.3 µM (inactive) | > 100 µM (inactive) | > 100 µM (inactive) | 71.9 µM (inactive) | > 100 µM (inactive) | 79.1 µM (inactive) | > 100 µM (inactive) | > 100 µM (inactive) | > 100 µM (inactive) | > 100 µM (inactive) | > 100 µM (inactive) | > 100 µM (inactive) | > 100 µM (inactive) | > 100 | – |
